{
  "source": "patent US9060987B2",
  "about": "“Methods for treating gout flares” (CymaBay Therapeutics, Inc., priority 2011, dated 2015)",
  "key": {"[1]": {"experiment": "Plasma concentration of (−)-halofenic acid during and after 30-day daily oral 400 mg arhalofenate", "assay_type": "in vivo, human", "protocol": "Methods used in relation to FIGS. 1-2 showing the pharmacokinetic profile of (−)-halofenic acid were as follows:\nPlasma proteins in human plasma samples containing of (−)-halofenic acid, an internal standard (I.S.) and heparin as the anticoagulant were precipitated with acetonitrile. The samples were vortex mixed, centrifuged and an aliquot was analyzed by reversed phase high performance liquid chromatography using a Phenomenex Polar RP column maintained at 45° C. The mobile phase was nebulized using heated nitrogen in a Z-spray source/interface and the ionized compounds were detected using a tandem quadrupole mass spectrometer.\nThe plasma concentrations were rounded to the nearest one-tenth μg/mL before the calculations. Plasma samples with concentrations below the quantifiable limit of 1.0 μg/mL (BQL) were assigned values of zero."}, "[2]": {"tested_on": "gout patients", "conditions": "monotherapy at 40, 80, 120, 160 and 240 mg/day; cited from earlier work"}, "[3]": {"tested_on": "murine 3T3-L1 adipocytes", "experiment": "Suppression of uric-acid induced inflammation in vitro", "assay_type": "cell-based", "conditions": "50-150 μM, uric acid 5 or 15 mg/dL, 3 or 7 days", "protocol": "Differentiated murine 3T3-L1 adipocytes are cultured in vitro in 24 well plates. To the culture medium (−)-halofenic acid is added at a final concentration of 50-150 μM prior to the addition of uric acid at 5 mg/dL or 15 mg/dL and the culture continued for 3 or 7 days. A parallel culture of cells is conducted in the presence of a vehicle such as dimethylsulfoxide (DMSO). At the end of the culture period media is removed, cells are isolated and messenger RNA prepared. The levels of secreted cytokines representing a panel of pro-inflammatory cytokines including but not restricted to monocyte chemoattractant protein-1 (MCP-1), tumor necrosis factor α (TNF-α), interleukin-1β, (IL-1β), interleukin-6 (IL-6) and interleukin-12 (Il-12) are determined in the media isolated from the cells using commercially available cytokine assay kits. The levels of gene expression for the mRNAs for a panel of pro-inflammatory cytokines including but not restricted to monocyte chemoattractant protein-1 (MCP-1), tumor necrosis factor α (TNF-α), interleukin-1β, (IL-1β), interleukin-6 (IL-6) and interleukin-12 (Il-12) are determined using real-time PCR. […] A similar study is also conducted in primary mouse macrophages and human umbilical vein endothelial cells."}, "[4]": {"tested_on": "gout patients with hyperuricemia", "experiment": "Randomized, double-blind, placebo-controlled 4-week monotherapy trial: sUA reduction and flare prevention", "assay_type": "in vivo, human", "conditions": "for Flares considered moderate in severity by the investigator / Patients who reported flare during the Treatment Phase / Patients with flare that required medication (additional colchicine and/or NSAIDs) / Mean duration of Flares Requiring Treatment / Mean duration of Total flares / Mean sUA absolute change from baseline (Day 1) / Mean sUA percent change from baseline (Day 1): 4 weeks; for Mean sUA absolute change from baseline (Day 1) / Mean sUA percent change from baseline (Day 1): PP population; for Mean sUA percent change from baseline (Day 1): colchicine 0.6 mg background", "protocol": "Study Design: This was a randomized, double-blind, placebo-controlled study of 400 mg and 600 mg arhalofenate administered daily for 4 weeks as monotherapy in patients with gout (per criteria of the American Rheumatism Association) with hyperuricemia. Patients using urate lowering therapy (ULT) must have been willing to discontinue treatment for the duration of the study. Patients with a recent history of an acute gout flare must have been symptom free for at least 1 week prior to screening. Upon successful completion of screening, patients entered into a minimum 3-week Run-in/Stabilization Phase. During this phase, patients on existing ULT were asked to temporarily discontinue their current therapy. Patients also started colchicine 0.6 mg once daily until the final study visit as prophylaxis to prevent potential gout flares. Patient who met final eligibility criteria were randomized (1:1:1) into the Treatment Phase to receive Placebo, arhalofenate 400 mg, or arhalofenate 600 mg. Each randomized patient took double-blind study medication daily for a period of four weeks beginning at Day 1 (Visit 3). Patients returned to the study site after 2 weeks at Visit 4 and then weekly at Visits 5 and 6 (Weeks 3 and 4). A Follow-up Visit (Visit 7) took place 2 weeks after the last dose of study medication. […] Patients with a recent history of an acute gout flare must have been symptom free for at least 1 week prior to both screening and randomization. Criteria for Evaluation: The primary efficacy analysis compared the percentage change in sUA from baseline to end of treatment between the treatment groups. In addition, gout flares were captured as special interest event and the incidence of gout flares (all flares and flares that required treatment), severity (as assessed either mild, moderate, or severe by the Principal Investigator), and duration (days) were compared between treatment groups."}, "[5]": {"tested_on": "healthy adult subjects", "experiment": "Phase 1 multiple-dose study, serum uric acid after once daily oral dosing for 10 days", "assay_type": "in vivo, human", "conditions": "all dose levels tested, FIG. 3 and Table 1", "protocol": "Methods used in relation to FIG. 3 showing reduction in serum uric acid in subjects over time following once daily dosing with arhalofenate were as follows.\nA single centre Phase 1, placebo- and positive-controlled, double-blind, randomized, dose escalation study was conducted to evaluate the multiple-dose pharmacokinetics (PK) of (−)-halofenate administered as a daily dose orally for 10 days, at the protocol-specified doses in healthy adult subjects. A total of 119 subjects completed study treatment according to protocol: 6 subjects received (−)-halofenate 100 mg/day for 10 days; 6 subjects received (−)-halofenate 200 mg/day for 10 days; 9 subjects received (−)-halofenate 400 mg/day for 10 days; 20 subjects received (−)-halofenate 600 mg/day for 10 days; 10 subjects received (−)-halofenate 600 mg Enteric Coated (EC)/day for 10 days; 9 subjects received (−)-halofenate 800 mg EC/day for 10 days; 10 subjects received (−)-halofenate 1000 mg EC/day for 10 days; 24 subjects received placebo treatment daily for 10 days; and 25 subjects received naproxen 500 mg b.i.d. monotherapy for 7 days. In this study, serum uric acid was measured at screening and on Days 1, 3, 5, 7, 9, 14 and 21."}, "[6]": {"tested_on": "gout patients with hyperuricemia", "experiment": "Open-label trial of arhalofenate in combination with febuxostat vs febuxostat alone: sUA reduction and flare prevention", "assay_type": "in vivo, human", "protocol": "Study Design: This was an open-label study to determine the sUA reduction and flare prevention with arhalofenate in combination with febuxostat and compared that with febuxostat alone in gout patients (per criteria of the American Rheumatism Association) with hyperuricemia when arhalofenate administered at 400 mg once daily orally for 2 weeks (Weeks 2-3) and then increased to 600 mg once daily orally for an additional 2 weeks (Weeks 4-5) in addition to 80 mg febuxostat once daily orally (Weeks 1-5). Patients with a recent history of an acute gout flare must have been symptom free for at least 1 week prior to screening.\nAll patients who met the screening criteria started a 2-week Run-in/Stabilization Phase at the same time as out-patient basis. During this phase, patients on existing urate lowering therapy were asked to discontinue their current therapy for the duration of the study. At the same time, patients also started colchicine 0.6 mg once daily as prophylaxis to prevent potential gout flares. Upon completing the Run-in/Stabilization Phase, patients were reassessed at Day −2 (Visit 2) to confirm the final eligibility for the Treatment Phase. The sUA at this visit must have been ≧8.0 mg/dL and ≦10 mg/dL to qualify for the Treatment Phase. In addition, all safety lab values must have met the eligibility criteria at this visit. Patients successfully meeting the eligibility criteria entered the study site for an in-clinic stay for a total of 37 consecutive days.\nThe Treatment Phase began on Day 1 and continued for 5 weeks until Day 35. The Treatment Phase consisted of 3 sequential drug dosing periods:\n80 mg febuxostat orally once daily from Days 1 through 7 (Febuxostat Period).\n80 mg febuxostat plus 400 mg arhalofenate orally once daily from Days 8 through 21 (Febuxostat plus 400 mg arhalofenate Period).\n80 mg febuxostat plus 600 mg arhalofenate orally once daily from Days 22 through 35 (Febuxostat plus 600 mg arhalofenate Period).\nIn addition, all patients continued to receive 0.6 mg colchicine daily for gout flare prophylaxis.\nEfficacy of febuxostat plus arhalofenate combination treatment was assessed by the proportion of patients achieving a sUA<6 mg/dL, <5 mg/dL, <4 mg/dL, and <3 mg/dL at Day 22 and Day 36. In addition, absolute and percent changes in sUA at Day 22 and Day 36 from baseline (Day 1) were also evaluated. Gout flares were captured as special interest event in this study. The incidence of gout flares, severity (as assessed either mild, moderate, or severe by the Principal Investigator), and duration (days) were compared between treatment periods."}, "[7]": {"conditions": "Day 8, after one week of daily 80 mg febuxostat"}},
  "data": [
    {"molecule": "O=C(O)C(Oc1cccc(C(F)(F)F)c1)c1ccc(Cl)cc1", "note": "(single isomer, unassigned; (-)) [(−)-halofenic acid, (−)-4-chlorophenyl-(3-trifluoromethylphenoxy)acetic acid]", "values": [
      {"measurement": "Half-life of (−)-halofenic acid in plasma", "setting": "[1]; daily oral 400 mg arhalofenate for 30 days, FIGS. 1-2", "result": "a long half-life with sustained drug levels present for several days after the final dose"},
      {"measurement": "Intraday plasma concentration profile", "setting": "[1]; daily oral 400 mg arhalofenate, Day 15 and Day 30, FIG. 2", "result": "a relatively constant intraday plasma concentration"}
    ]},
    {"molecule": "O=c1[nH]cnc2c(CN3C[C@H](CO)[C@@H](O)C3)c[nH]c12", "note": "[Ulodesine, 7-(((3R,4R)-3-hydroxy-4-(hydroxymethyl)pyrrolidin-1-yl)methyl)-3H-pyrrolo[3,2-d]pyrimidin-4(5H)-one]", "values": [
      {"measurement": "Serum uric acid in gout patients", "setting": "[2]", "result": "rapidly and significantly reduced serum uric acid"}
    ]},
    {"molecule": "CC(=O)NCCOC(=O)[C@H](Oc1cccc(C(F)(F)F)c1)c1ccc(Cl)cc1", "note": "[arhalofenate, (−)-(R)-(4-chloro-phenyl)-(3-trifluoromethyl-phenoxy)-acetic acid 2-acetylamino-ethyl ester]", "values": [
      {"measurement": "Uptake of uric acid into 3T3-L1 adipocytes", "setting": "[3]", "result": "prevents the uptake of uric acid into 3T3-L1 adipocytes"},
      {"measurement": "Uric acid induced inflammatory response (expression and secretion of pro-inflammatory cytokines)", "setting": "[3]", "result": "suppresses the uric acid induced inflammatory response"},
      {"measurement": "Flares considered moderate in severity by the investigator", "setting": "[4]; 400 mg daily", "result": "2 of 4"},
      {"measurement": "Patients who reported flare during the Treatment Phase", "setting": "[4]; 400 mg daily, FIG. 4", "result": 19.0, "unit": "%"},
      {"measurement": "Patients with flare that required medication (additional colchicine and/or NSAIDs)", "setting": "[4]; 400 mg daily, FIG. 4", "result": 4.8, "unit": "%"},
      {"measurement": "Mean duration of Flares Requiring Treatment", "setting": "[4]; 400 mg daily, FIG. 5", "result": 2.0, "unit": "days"},
      {"measurement": "Mean duration of Total flares", "setting": "[4]; 400 mg daily, FIG. 5", "result": 1.3, "unit": "days"},
      {"measurement": "Mean sUA absolute change from baseline (Day 1)", "setting": "[4]; 400 mg daily", "result": -1.4, "unit": "mg/dL"},
      {"measurement": "Mean sUA percent change from baseline (Day 1)", "setting": "[4]; 400 mg daily", "result": "−15.4", "unit": "%"},
      {"measurement": "Flares considered moderate in severity by the investigator", "setting": "[4]; 600 mg daily", "result": "0 of 2"},
      {"measurement": "Patients who reported flare during the Treatment Phase", "setting": "[4]; 600 mg daily, FIG. 4", "result": 4.3, "unit": "%"},
      {"measurement": "Patients with flare that required medication (additional colchicine and/or NSAIDs)", "setting": "[4]; 600 mg daily, FIG. 4", "result": 4.3, "unit": "%"},
      {"measurement": "Mean duration of Flares Requiring Treatment", "setting": "[4]; 600 mg daily, FIG. 5", "result": 1.0, "unit": "days"},
      {"measurement": "Mean duration of Total flares", "setting": "[4]; 600 mg daily, FIG. 5", "result": 1.0, "unit": "days"},
      {"measurement": "Mean sUA absolute change from baseline (Day 1)", "setting": "[4]; 600 mg daily", "result": -2.3, "unit": "mg/dL"},
      {"measurement": "Mean sUA percent change from baseline (Day 1)", "setting": "[4]; 600 mg daily", "result": "−23", "unit": "%"},
      {"measurement": "Incidence of any flares (Total flare) and flares requiring treatment compared to placebo", "setting": "[4]; monotherapy, FIG. 4", "result": "dose dependently reduced the incidence of any flares (Total flare) and flares requiring treatment compared to placebo"},
      {"measurement": "Duration of all flares (any flares and flares requiring treatment)", "setting": "[4]; monotherapy, FIG. 5", "result": "also reduced the duration of all flares"},
      {"measurement": "Reduction in serum uric acid over time", "setting": "[5]", "result": "gradual reduction in serum uric acid over a period of time at all dose levels tested, and in a dose dependent manner"}
    ]},
    {"molecule": "Cc1nc(-c2ccc(OCC(C)C)c(C#N)c2)sc1C(=O)O", "note": "[febuxostat, 2-(3-cyano-4-isobutoxyphenyl)-4-methyl-1,3-thiazole-5-carboxylic acid]", "values": [
      {"measurement": "Patients who experienced gout flares", "setting": "[6]; 1 week of febuxostat only period (80 mg), colchicine 0.6 mg background", "result": 2, "unit": "patients"},
      {"measurement": "Patients who reached sUA <4 mg/dL", "setting": "[6]; [7]", "result": 9, "unit": "%"},
      {"measurement": "Patients who reached sUA <5 mg/dL", "setting": "[6]; [7]", "result": 55, "unit": "%"},
      {"measurement": "Patients who reached sUA target of <6 mg/dL", "setting": "[6]; [7]", "result": 100, "unit": "%"},
      {"measurement": "Patients who reported flare, adjusted by duration of treatment", "setting": "[6]; febuxostat only period, FIG. 6", "result": 18.2, "unit": "% patients/week"},
      {"measurement": "Mean duration of the gout flares", "setting": "[6]; febuxostat only period, FIG. 7", "result": 6.5, "unit": "days"}
    ]}
  ]
}
